In patent publication US9546157B2, “Asymmetric piperidinyl-substituted ureas as medicines” (Helsinn Healthcare SA, priority 2014, dated 2017):

How the values were obtained:
GHSR1a [1] = target: T1, GHSR1a (Homo sapiens, UniProt Q92847); test: Calcium FLIPR assay, GHSR-1a agonism; assay type: cell-based; set-up: Emax: unit not given here; conditions: HEK293/GHSR1a cells
T1 construct: expressed in transfected cells; host or cells: HEK293
Summary of the method: (§1)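 Uses HEK293 cells expressing GHSR1a, loaded with calcium dye, with FLIPR fluorescence followed for 2 min after addition at t=20 s. Agonism: compound alone. Antagonism: compound with 10 nM ghrelin, potency from reduction of ghrelin response; EC50/IC50 from dose-response curves.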

C57BL/6J mice = test: Food intake test in mouse (GHSR1a antagonists); assay type: in vivo; conditions: for inhibition in vivo at 10 mg/kg: ip, 1 h
Method: Male C57BL/6J mice, 18-22 g body weight, were fasted overnight (16 h before compound administration) and placed in a regular light dark cycle (6:00-18:00 light/18:00-6:00 dark). After 1 wk acclimation, animals were sorted into two groups (n=6 each, 2 per cage) based on body weight. Animals in group one were be treated with vehicle and animals in group 2 were treated with the test agent (n=6 for each group). The cumulative food intake was evaluated at 1, 2, 4, 8 and 24 hrs after drug or vehicle treatment. Food intake was measured by subtracting uneaten food from the initial premeasured food.

[2] = Metabolic Stability (H = Human); assay type: in vitro ADME
[3] = Metabolic Stability (M = Mouse); assay type: in vitro ADME
GHSR1a [4] = target: T1, GHSR1a; test: Calcium FLIPR assay, GHSR-1a antagonism (reduction of ghrelin response); assay type: cell-based; conditions: HEK293/GHSR1a cells, ghrelin 10 nM
Summary of the method: as §1

[5] = PO 10 mg/kg + ANA (ANAM) 30 mg/kg mice

T1 sequence (Q92847 whole entry): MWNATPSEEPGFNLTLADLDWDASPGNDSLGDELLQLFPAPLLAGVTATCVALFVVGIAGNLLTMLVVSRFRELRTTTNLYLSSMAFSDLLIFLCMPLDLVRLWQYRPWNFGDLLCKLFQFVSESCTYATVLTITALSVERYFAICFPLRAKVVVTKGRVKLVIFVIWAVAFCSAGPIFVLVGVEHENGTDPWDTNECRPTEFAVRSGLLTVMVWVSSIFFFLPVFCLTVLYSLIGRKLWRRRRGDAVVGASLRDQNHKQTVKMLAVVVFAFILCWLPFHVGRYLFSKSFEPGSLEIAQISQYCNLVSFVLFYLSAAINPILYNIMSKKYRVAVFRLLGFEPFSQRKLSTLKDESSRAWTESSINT

| SMILES | EC50 (GHSR1a [1]) | Metabolic Stability H [2] | Metabolic Stability M [3] | IC50 (GHSR1a [4]) | also measured |
| --- | --- | --- | --- | --- | --- |
| CN1CCC(N(O)C(=O)NC(CC2CC2)c2ccc(-c3cnccn3)c(Cl)c2Cl)CC1 (single isomer, unassigned) [Compound H0782, 3-(2-cyclopropyl-1-(2,3-dichloro-4-(pyrazin-2-yl)phenyl)ethyl)-1-hydroxy-1-(1-methylpiperidin-4-yl)urea] | 6 nM |  |  | 5 nM | Emax (GHSR1a [1]): 1923; inhibition in vivo at 10 mg/kg (C57BL/6J mice; Mus musculus, i.p. 10 mg/kg): 93% |
| C[C@H](NC(=O)N(C)C1CCN(C)C1)c1ccc(-c2cnccn2)c(Cl)c1Cl (single isomer, unassigned) [Compound H0862] | > 30000 nM | High | medium | 3 nM | Mouse Food Intake, result in words (C57BL/6J mice; PO (10 mg/kg) + ANA, mice, ANA dose not given): PO (10 mg/kg) + ANA: no activity in mice |
| CC(NC(=O)N(C)C1CCN(C)CC1)c1ccc(-c2csc(C3CC3)n2)c(Cl)c1Cl (stereo not drawn) [Compound H0841, 3-(1-(2,3-dichloro-4-(2-cyclopropylthiazol-4-yl)phenyl)ethyl)-1-methyl-1-(1-methylpiperidin-4-yl)urea] | > 30000 nM |  |  | 118 nM | Mouse Food Intake, result in words (C57BL/6J mice; [5]): PO 10 mg/kg + ANAM 30 mg/kg mice: NSE |
| CCC(NC(=O)N(C)C1CCN(C)CC1)c1ccc(-c2cncc(F)n2)c(Cl)c1Cl (stereo not drawn) [Compound H0863, 3-(1-(2,3-dichloro-4-(6-fluoropyrazin-2-yl)phenyl)propyl)-1-methyl-1-(1-methylpiperidin-4-yl)urea] | > 30000 nM | Medium | High | 3 nM |  |
| C[C@H](NC(=O)N(C)C1CCN(C)C1)c1ccc(-c2cncc(F)n2)c(Cl)c1Cl (stereo partly drawn) [Compound H0872, 3-((S)-1-(2,3-dichloro-4-(6-fluoropyrazin-2-yl)phenyl)ethyl)-1-methyl-1-(1-methylpyrrolidin-3-yl)urea] | > 30000 nM | High | medium | 6 nM |  |
| CCN(C(=O)N[C@@H](C)c1ccc(-c2cnccn2)c(Cl)c1Cl)C1CCN(C)CC1 [Compound H0889, (S)-3-(1-(2,3-dichloro-4-(pyrazin-2-yl)phenyl)ethyl)-1-ethyl-1-(1-methylpiperidin-4-yl)urea] | > 30000 nM | High H High M | High H High M | 6 nM |  |
| C[C@H](NC(=O)N(C)[C@@H]1CCN(C)CC1(C)C)c1ccc(-c2cnccn2)c(Cl)c1Cl [Compound H0890, 3-((S)-1-(2,3-dichloro-4-(pyrazin-2-yl)phenyl)ethyl)-1-methyl-1-((R)-1,3,3-trimethylpiperidin-4-yl)urea] | > 30000 nM | High H High M | High H High M | 1.6 nM |  |
| CN1CCC(N(C)C(=O)N[C@@H](c2ccc(-c3cnccn3)c(Cl)c2Cl)C(F)(F)F)CC1 [Compound H0899, (S)-3-(1-(2,3-dichloro-4-(pyrazin-2-yl)phenyl)-2,2,2-trifluoroethyl)-1-methyl-1-(1-methylpiperidin-4-yl)urea] | > 30000 nM | Medium | High | 1600 nM |  |
| CN1CCC(N(C)C(=O)NC(c2ccc(-c3cncc(F)n3)c(Cl)c2Cl)C(F)(F)F)CC1 (stereo not drawn) [Compound H0908, 3-(1-(2,3-dichloro-4-(6-fluoropyrazin-2-yl)phenyl)-2,2,2-trifluoroethyl)-1-methyl-1-(1-methylpiperidin-4-yl)urea] | > 30000 nM | Medium | High | 8 nM |  |
| CCN(C(=O)NC(c1ccc(-c2cnccn2)c(Cl)c1Cl)C(F)(F)F)C1CCN(C)CC1 (stereo not drawn) [Compound H0909, 3-(1-(2,3-dichloro-4-(pyrazin-2-yl)phenyl)-2,2,2-trifluoroethyl)-1-ethyl-1-(1-methylpiperidin-4-yl)urea] | > 30000 nM | Medium | High | 12 nM |  |

Continued, in another order:

| EC50 (GHSR1a [1]) | Metabolic Stability H [2] | Metabolic Stability M [3] | IC50 (GHSR1a [4]) | SMILES | also measured |
| --- | --- | --- | --- | --- | --- |
| 3 nM | Medium H Medium M | Medium H Medium M |  | CC(NC(=O)N(C)C1CCN(C)CC1)c1ccc(-c2cccs2)c(Cl)c1Cl (single isomer, unassigned) [Compound H0563, 3-(1-(2,3-dichloro-4-(thiophen-2-yl)phenyl)ethyl)-1-methyl-1-(1-methylpiperidin-4-yl)urea] | Emax (GHSR1a [1]): 2100; inhibition in vivo at 10 mg/kg (C57BL/6J mice; Mus musculus, i.p. 10 mg/kg): 65% |
| > 30000 nM | High | Medium | 5 nM | C#Cc1ccc(C(C)NC(=O)N(C)C2CCN(C)CC2)c(Cl)c1Cl (single isomer, unassigned) [Compound H0677, 3-(1-(2,3-dichloro-4-ethynylphenyl)ethyl)-1-methyl-1-(1-methylpiperidin-4-yl)urea] | Mouse Food Intake, result in words (C57BL/6J mice; PO, dose not given): NSE |
| > 30000 nM | Medium H Medium M | Medium H Medium M | 55 nM | C#Cc1ccc(C(C)NC(=O)N(C)C2CCN(C)CC2)c(Cl)c1Cl (single isomer, unassigned) [Compound H0678, 3-(1-(2,3-dichloro-4-ethynylphenyl)ethyl)-1-methyl-1-(1-methylpiperidin-4-yl)urea] | inhibition in vivo at 10 mg/kg (C57BL/6J mice; Mus musculus, i.p. 10 mg/kg): 78%; Mouse Food Intake, result in words (C57BL/6J mice; PO, dose not given): no effect |
| 3.5 nM |  |  | 1.7 nM | CC(NC(=O)N(C)C1CCN(C)CC1)c1ccc(C#CC2CC2)c(Cl)c1Cl (single isomer, unassigned) [Compound H0818, 3-(1-(2,3-dichloro-4-(cyclopropylethynyl)phenyl)ethyl)-1-methyl-1-(1-methylpiperidin-4-yl)urea] | Emax (GHSR1a [1]): 1915; inhibition in vivo at 30 mg/kg (C57BL/6J mice; Mus musculus, po, 4 h, 30 mg/kg PO fasted mice): 22% |
| 140 nM |  |  | 65 nM | CC(NC(=O)N(C)C1CCN(C)CC1)c1ccc(C#CC2CC2)c(Cl)c1Cl (single isomer, unassigned) [Compound H0819, 3-(1-(2,3-dichloro-4-(cyclopropylethynyl)phenyl)ethyl)-1-methyl-1-(1-methylpiperidin-4-yl)urea] | Emax (GHSR1a [1]): 1419; Mouse Food Intake, result in words (C57BL/6J mice; 30 mg/kg PO fasted mice): 30 mg/kg PO fasted mice NSE |
| > 30000 nM | Medium | Meidum | 12 nM | CC(NC(=O)N(C)C1CCN(C)CC1)c1ccc(Cl)c(Cl)c1Cl (stereo not drawn) [Compound H0381, 1-methyl-1-(1-methylpiperidin-4-yl)-3-(1-(2,3,4-trichlorophenyl)ethyl)urea] | Mouse Food Intake, result in words (C57BL/6J mice; i.p., dose not given): IP: No effect |
| 66 nM | Medium | High | 52 nM | CC(NC(=O)N(C)C1CCN(C)CC1)c1ccc(C2CC2)c(Cl)c1Cl (stereo not drawn) [Compound H0494, 3-(1-(2,3-dichloro-4-cyclopropylphenyl)ethyl)-1-methyl-1-(1-methylpiperidin-4-yl)urea] | Emax (GHSR1a [1]): 2996; Mouse Food Intake, result in words (C57BL/6J mice; i.p., dose not given): No Effect |
| > 30000 nM | Medium | High | 10 nM | CC(NC(=O)N(C)C1CCN(C)CC1)c1ccc(-c2cccnc2)c(Cl)c1Cl (stereo not drawn) [Compound H0496, 3-(1-(2,3-dichloro-4-(pyridin-3-yl)phenyl)ethyl)-1-methyl-1-(1-methylpiperidin-4-yl)urea] | Mouse Food Intake, result in words (C57BL/6J mice; i.p. 10 mg/kg): NSE (10 mg/kg) |
| > 30000 nM | Medium H Medium M | Medium H Medium M | 24 nM | CC(NC(=O)N(C)C1CCN(C)CC1)c1ccc(-c2ccncc2)c(Cl)c1Cl (stereo not drawn) [Compound H0497, 3-(1-(2,3-dichloro-4-(pyridin-4-yl)phenyl)ethyl)-1-methyl-1-(1-methylpiperidin-4-yl)urea] | Mouse Food Intake, result in words (C57BL/6J mice; i.p. 30 mg/kg): NSE (30 mg/kg) |
| > 30000 nM |  |  | 94 nM | C[C@@H](NC(=O)N(C)C1CCN(C)CC1)c1ccc(-c2cnccn2)c(Cl)c1Cl [Compound H0817, (R)-3-(1-(2,3-dicholoro-4-(pyrazin-2-yl)phenyl)ethyl)-1-methyl-1-(1-methylpiperidin-4-yl)urea] | Mouse Food Intake, result in words (C57BL/6J mice; 30 mg/kg PO fasted mice): 30 mg/kg PO fasted mice NSE |
| 21 nM |  |  | 4 nM | C[C@H](NC(=O)N(C)C1CCN(C)C1)c1ccc(C#CC2CC2)c(Cl)c1Cl (stereo partly drawn) [Compound H0838, 3-((S)-1-(2,3-dichloro-4-(cyclopropylethynyl)phenyl)ethyl)-1-methyl-1-(1-methylpyrrolidin-3-yl)urea] | Emax (GHSR1a [1]): 1340; Mouse Food Intake increase, activity up to (C57BL/6J mice; 30 mg/kg PO mice): ≤ 8 h; Mouse Food Intake % increase (C57BL/6J mice; 2 h, 30 mg/kg PO mice): 205% |
| > 30000 nM |  |  | 47 nM | CC(NC(=O)N(C)C1CCN(C)CC1)c1ccc(-c2nccnc2F)c(Cl)c1Cl (stereo not drawn) [Compound H0840] | Mouse Food Intake, result in words (C57BL/6J mice; [5]): PO 10 mg/kg + ANA 30 mg/kg mice: NSE |
